In ChEMBL document CHEMBL1141684, “Synthesis and evaluation of cis-3,4-disubstituted piperidines as potent CC chemokine receptor 2 (CCR2) antagonists” (Bioorg Med Chem Lett, 2008) one finds inhibition, IC50 and Activity data, which are given here for 18 molecules.

Assay [1] has as its target T1, C-C chemokine receptor type 3 (Homo sapiens) (UniProt P51677).
T1 sequence (whole entry): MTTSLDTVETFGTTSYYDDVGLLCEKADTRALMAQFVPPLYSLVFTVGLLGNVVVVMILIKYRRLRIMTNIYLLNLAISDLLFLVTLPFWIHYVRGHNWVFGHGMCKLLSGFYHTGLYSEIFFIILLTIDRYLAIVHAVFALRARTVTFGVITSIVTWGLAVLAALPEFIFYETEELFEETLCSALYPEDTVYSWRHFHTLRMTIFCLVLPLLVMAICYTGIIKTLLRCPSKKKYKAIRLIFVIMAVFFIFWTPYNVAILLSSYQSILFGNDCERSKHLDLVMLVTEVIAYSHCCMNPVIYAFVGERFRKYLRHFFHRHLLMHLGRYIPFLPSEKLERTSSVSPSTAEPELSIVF
Nature of the assay: Inhibition of CCR3 at 10 uM.

The target in assay [2] is T2, C-C chemokine receptor type 2 (Homo sapiens, UniProt P41597). Nature of the assay: Antagonist activity at CCR2 in human PBMC assessed as MCP1-induced calcium flux by fluorescence-imaging plate assay. The assay is classed as functional. A general note: Calcium assays in cells follow changes in intracellular calcium, usually with a dye or a luminescent sensor.
Target sequence in this assay (P41597 whole entry): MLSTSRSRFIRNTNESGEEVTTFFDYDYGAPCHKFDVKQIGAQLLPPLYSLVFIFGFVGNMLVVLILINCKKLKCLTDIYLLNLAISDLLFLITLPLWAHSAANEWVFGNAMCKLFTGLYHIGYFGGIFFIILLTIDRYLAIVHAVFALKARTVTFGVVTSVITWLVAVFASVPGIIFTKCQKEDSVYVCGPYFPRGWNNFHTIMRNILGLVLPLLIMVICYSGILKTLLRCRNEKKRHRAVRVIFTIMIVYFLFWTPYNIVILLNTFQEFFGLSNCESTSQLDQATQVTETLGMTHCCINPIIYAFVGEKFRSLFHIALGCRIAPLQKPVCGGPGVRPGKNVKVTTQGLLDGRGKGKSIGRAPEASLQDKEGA
In assay [3] the target is T2, C-C chemokine receptor type 2. Nature of the assay: Displacement of radiolabeled MCP1 from CCR2 in human PBMC by millipore filter plate assay.
Target sequence in this assay (P41597 whole entry): as above
For assay [4] the target is unchanged. Nature of the assay: Binding affinity to wild type CCR2.
Target sequence in this assay (P41597 whole entry): as above
Assay [5] has as its target C-C chemokine receptor type 2 (Homo sapiens, UniProt P41597, E291A). Put plainly: Binding affinity to CCR2 E291A mutant.
Assay [6] has as its target T2, C-C chemokine receptor type 2. Put plainly: Displacement of radiolabeled MCP1 from CCR2 in human PBMC at 1 uM by millipore filter plate assay.
Target sequence in this assay (P41597 whole entry, looked up): as the sequence (P41597 whole entry) above

Chain of C-C chemokine receptor type 2 (Homo sapiens, UniProt P41597, E291A) (P41597 whole entry E291A): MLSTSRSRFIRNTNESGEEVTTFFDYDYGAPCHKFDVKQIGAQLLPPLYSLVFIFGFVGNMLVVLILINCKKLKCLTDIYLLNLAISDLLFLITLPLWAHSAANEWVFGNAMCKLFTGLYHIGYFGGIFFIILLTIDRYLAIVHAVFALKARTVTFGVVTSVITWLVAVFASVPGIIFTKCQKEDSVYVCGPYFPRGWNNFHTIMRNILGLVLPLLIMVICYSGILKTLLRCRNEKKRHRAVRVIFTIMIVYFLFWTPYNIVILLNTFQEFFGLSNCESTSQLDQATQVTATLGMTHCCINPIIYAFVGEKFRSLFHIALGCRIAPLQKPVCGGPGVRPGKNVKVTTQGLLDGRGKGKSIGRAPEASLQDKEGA

`CCCN1CCC(NCc2ccc(SC)cc2)C(NC(=O)CNC(=O)c2cc(C(F)(F)F)ccc2NC(=O)N2CCCC2)C1` (racemic) showed an inhibition in assay [1] of 38.2%. Besides, the IC50 is 21 nM in assay [2] and 8.7 nM in assay [3].
Regarding `CSc1ccc(C(=O)NC2CCNCC2NC(=O)CNC(=O)c2cc(C(F)(F)F)ccc2N)cc1` (racemic), the inhibition in assay [1] was 19.7%. Also, the half-maximal inhibitory concentration (IC50) in assay [2] came to 75 nM; in assay [4], 12 nM; in assay [3], 28 nM; in assay [5], 381 nM.
The molecule `CCSc1ccc(CNC2CCNCC2NC(=O)CNC(=O)c2cc(C(F)(F)F)ccc2N)cc1` (racemic) returned an IC50 in assay [3] of 123 nM.
`CSc1ccc(CNC2CCNCC2NC(=O)CNC(=O)c2cccc(C(F)(F)F)c2)cc1` (racemic) gave an inhibition in assay [1] of 46%. The half-maximal inhibitory concentration (IC50) in assay [2] was 510 nM; in assay [3], 97 nM.
The like results for `CSc1ccc(CNC2CCN(C)CC2NC(=O)CNC(=O)c2cc(C(F)(F)F)ccc2N)cc1` (racemic) were, in that order, 56%, 5 nM and 0.95 nM.
Consider `CSc1ccc(C(=O)NC2CCN(C)CC2NC(=O)CNC(=O)c2cc(C(F)(F)F)ccc2N)cc1` (racemic), for which the inhibition in assay [1] was 43.1%. Besides, the results for the concentration for half-maximal inhibition (IC50) in assay [2] and in assay [3] were 2 nM and 1.8 nM, respectively.
For `CCCN1CCC(NC(=O)c2ccc(SC)cc2)C(NC(=O)CNC(=O)c2cc(N)cc(C(F)(F)F)c2)C1` (racemic), the IC50 in assay [2] is 6 nM; in assay [3], 6.2 nM.
Consider `CCCN1CCC(NCc2ccc(SC)cc2)C(NC(=O)CNC(=O)c2cc(N)cc(C(F)(F)F)c2)C1` (racemic), for which the inhibition in assay [1] was 49.3%. In addition, the values for the 50% inhibitory concentration (IC50) in assay [2] and in assay [3] were 3 nM and 6.1 nM, respectively.
In turn, `CSc1ccc(CNC2CCCCC2NC(=O)CNC(=O)c2cc(C(F)(F)F)ccc2N)cc1` (racemic) had a 50% inhibitory concentration (IC50) in assay [3] of 1180 nM.
`CSc1ccc(CNC2CCNCC2NC(=O)CNC(=O)c2cc(C(F)(F)F)ccc2N)cc1` (racemic) registered an inhibition in assay [1] of 47.3%. In addition, the IC50 is 7 nM in assay [2], 6.1 nM in assay [4], 6.3 nM in assay [3] and 749 nM in assay [5].
In turn, `Nc1ccc(C(F)(F)F)cc1C(=O)NCC(=O)NC1CNCCC1NCc1ccc(Cl)cc1` (racemic) displayed an inhibition in assay [1] of 90%. In addition, the IC50 was determined as 19 nM in assay [2] and 21.5 nM in assay [3].
The like results for `CCCN1CCC(NCc2ccc(SC)cc2)C(NC(=O)CNC(=O)c2cc(C(F)(F)F)ccc2N)C1` (racemic) were, in that order, 47%, 2 nM and 3.4 nM.
Take `CCCN1CCC(NCc2ccc(SC)cc2)C(NC(=O)CNC(=O)c2cc(C(F)(F)F)ccc2NC(=O)NC)C1` (racemic): the inhibition in assay [1] is 5.5%. Also, the concentration for half-maximal inhibition (IC50) in assay [2] is 3 nM; in assay [3], 3.8 nM.
As to `CSc1ccc(CNC2CCN(C(C)=O)CC2NC(=O)CNC(=O)c2cccc(C(F)(F)F)c2)cc1` (racemic), in assay [3], the IC50 worked out at 463 nM.
`CCCCN1CCC(NCc2ccc(SC)cc2)C(NC(=O)CNC(=O)c2cc(C(F)(F)F)ccc2N)C1` (racemic) had an inhibition in assay [1] of 75%. Besides, the 50% inhibitory concentration (IC50) in assay [2] worked out at 13 nM; in assay [3] it was 7.9 nM.
The matching figures for `CCCCN1CCC(NC(=O)c2ccc(SC)cc2)C(NC(=O)CNC(=O)c2cc(C(F)(F)F)ccc2N)C1` (racemic): 77%, 13 nM and 4.3 nM.
In assay [6], `CSc1ccc(C(=O)NC2CCN(C(=O)OC(C)(C)C)CC2NC(=O)CNC(=O)c2cc(C(F)(F)F)ccc2NC(=O)OC(C)(C)C)cc1` (racemic) registered an Activity of 0%.
Same read-out and setting: next, `CSc1ccc(CNC2CCN(C(=O)OC(C)(C)C)CC2NC(=O)CNC(=O)c2cccc(C(F)(F)F)c2)cc1` (racemic): 0%.

One may read the inhibition as the percentage by which the read-out fell short of the control. High values mean a strong effect, low ones a weak effect. The IC50 is the concentration that inhibits the measured activity by half.
